Results on one compound are retold here after US7417041B2, “Imidazopyrimidines as transforming growth factor (TGF) inhibitors” (Pfizer Inc., priority 2003, dated 2008).

For the test, the target named is T1, TβRI (Homo sapiens, UniProt P36897).
T1 construct: using either the kinase domain of ALK5 with Smad3 as substrate; GST
T1 sequence (P36897 205-495 limits assumed): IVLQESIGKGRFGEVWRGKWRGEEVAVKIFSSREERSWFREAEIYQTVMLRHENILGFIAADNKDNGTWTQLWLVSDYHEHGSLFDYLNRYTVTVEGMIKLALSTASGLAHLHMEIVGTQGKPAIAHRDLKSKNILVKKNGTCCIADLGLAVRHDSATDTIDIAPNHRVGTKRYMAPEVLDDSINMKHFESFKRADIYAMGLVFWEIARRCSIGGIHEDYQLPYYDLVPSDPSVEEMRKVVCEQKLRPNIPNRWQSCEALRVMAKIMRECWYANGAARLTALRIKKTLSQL
The test is described as follows: ALK-5 (TβRI) kinase assay. It is filed as biochemical. The conditions noted are these: read-out: in vitro IC50 value against TβRI. As for the experimental part: ALK-5 (TβRI) Kinase Assay Protocol
The kinase assays were performed with 65 nM GST-ALK5 and 84 nM GST-Smad3 in 50 mM HEPES, 5 mM MgCl2, 1 mM CaCl2, 1 mM dithiothreitol, and 3_M ATP. Reactions were incubated with 0.5_Ci of [33 P]ATP for 3 h at 30° C. Phosphorylated protein was captured on P-81 paper (Whatman, Maidstone, England), washed with 0.5% phosphoric acid, and counted by liquid scintillation. Alternatively, Smad3 or Smad1 protein was also coated onto FlashPlate Sterile Basic Microplates (PerkinElmer Life Sciences, Boston, Mass.). Kinase assays were then performed in Flash-Plates with same assay conditions using either the kinase domain of ALK5 with Smad3 as substrate or the kinase domain of ALK6 (BMP receptor) with Smad1 as substrate. Plates were washed three times with phosphate buffer and counted by TopCount (Packard Bio-science, Meriden, Conn.). (Laping, N. J. et al. Molecular Pharmacology 62:58-64 (2002)).

Broadly, the IC50 is the concentration that gives 50% inhibition.

As to `Cc1cccc(-c2c(-c3ccc4nnn(C)c4c3)nc3ncccn23)n1` [Example 15, 1-Methyl-6-[3-(6-methyl-pyridin-2-yl)-imidazo[1,2-a]pyrimidin-2-yl]-1H-benzotriazole], the IC50 worked out at 253 nM.
